Where “and” joins values, the source holds several entries; their conditions need not be identical. Equal values may be shown once.
Assays:
[1] = system: OVX or SHAM C3H female mice; test: Restoration of bone loss in ovariectomized mice, oral treatment started 3 weeks after surgery; assay type: in vivo; conditions: 8 weeks
Procedure: 12-week-old C3H female mice were subjected to bilateral ovariectomy (OVX) or sham surgery SHAM (time point −3). The OVX and SHAM animals were treated with the vitamin D analogue MV2 (1 μg/kg three times per week) or vehicle (arachis oil) by oral gavage. Dosing was started 3 weeks after surgery (time point 0) and was continued for 8 weeks (time point 8). The number of mice per group is 8 to 10.
Before the surgery and 3 weeks after ovariectomy in vivo, measurements were performed in order to determine bone mineral density (BMD), bone mineral content (BMC) of total body and spine by DEXA. Before the surgery and 3 weeks after ovariectomy, serum was collected to measure calcium levels by a standard […] method (Synchron CX4, Beckman Instruments, USA). The animals were weighted regularly during the experimental period to monitor their overall health and well being. After 4 weeks treatment, serum was again collected and biochemical parameters were determined. At the end of the experiment (8 weeks of treatment) bone mineral density (BMD) and bone mineral content (BMC) of total body and spine were measured by DEXA and serum was collected to determine serum calcium levels. […] Tibiae were used for histomorphometric analysis, and femurs for measurement of cortical and trabecular volumetric density and geometry by peripheral quantitative computed tomography (PQCT) ex vivo. […]

NMRI mice = test: In vivo activity: serum and femur calcium after 7 daily i.p. injections; conditions: dose 0.2 μg/kg/d i.p., 7 days; * in cell = P < 0.05
Procedure: Eight weeks old, male NMRI mice were fed a vitamin D-replete diet (0.2% calcium, 1% phosphate, 2000 U vitamin D/kg; Hope Farms, Woerden, The Netherlands). Groups of six mice were intraperitoneally injected daily during 7 consecutive days with different doses of 1,25(OH)2D3 (0.2 and 0.4 μg/kg/day) or analogues. The control group was injected with vehicle (arachis oil). The average weight of each group of 6 mice was determined at the beginning and at the end of the experiment. The following parameters were evaluated: serum calcium and femur calcium. Serum calcium was measured by a microcolorimetric assay (Sigma, St. Louis, Mo.). Femurs were removed and femur calcium content was measured in HCl-dissolved bone ash (obtained by heating for 24 hours in an oven at 100° C.), using the same technique as for serum calcium. Student's t-tests were carried out to detect significant differences; p<0.05 was accepted as significant. […]

[2] = biological target: T1, human vitamin D binding protein (hDBP) (Homo sapiens, UniProt P02774); test: Affinity for human vitamin D binding protein; conditions: hDBP 0.18 μM, 4° C. 3 hours; 1,25(OH)2D3 = 100
T1 sequence (P02774 17-474): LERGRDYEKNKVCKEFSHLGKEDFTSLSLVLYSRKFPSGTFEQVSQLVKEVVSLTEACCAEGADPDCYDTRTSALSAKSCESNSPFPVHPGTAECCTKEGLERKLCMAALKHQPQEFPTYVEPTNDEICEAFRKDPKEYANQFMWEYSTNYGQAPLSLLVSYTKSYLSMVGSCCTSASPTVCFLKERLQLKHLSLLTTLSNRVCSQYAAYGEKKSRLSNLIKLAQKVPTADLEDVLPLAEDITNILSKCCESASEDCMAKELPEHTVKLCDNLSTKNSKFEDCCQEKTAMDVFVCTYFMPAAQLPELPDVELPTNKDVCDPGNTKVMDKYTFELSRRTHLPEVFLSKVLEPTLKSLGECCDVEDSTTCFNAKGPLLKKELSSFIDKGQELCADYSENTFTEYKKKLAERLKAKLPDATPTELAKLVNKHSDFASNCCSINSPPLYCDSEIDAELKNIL
Procedure: Binding of 1α,25(OH)2D3 analogues to hDBP was performed at 4° C. […] Phase separation was then obtained by the addition of 0.5 ml of cold dextran-coated charcoal.

[3] = system: SHAM or OVX operated C3H mice; test: Ovariectomized mice model for primary prevention of osteoporosis; assay type: in vivo; conditions: 0.5 μg/kg i.p.
Procedure: Twelve-week-old C3H mice were randomly divided into four groups (9-13 mice/group). Two groups of mice were SHAM-operated (SHAM) and two groups were ovariectomized (OVX). Three days after the surgical procedure the SHAM and OVX mice were injected with MV2 intraperitoneally at 0.5 μg/kg/2days (4 times per week) or vehicle (arachis oil). The mice were treated for 8 weeks. At the beginning (before the first injection) of the experiment, bone mineral density (BMD) and bone mineral content (BMC) were determined by dual-energy X-ray absorptiometry (hereinafter referred as DEXA) and serum calcium levels were determined by a microcolorimetric assay. The animals were weighted regularly during the experimental period.
At the end of the experiment serum calcium levels, BMD and BMC were again measured. Trabecular and cortical bone mineral content (BMC) and bone mineral density (BMD) and the geometry of the femur were assessed by a Stratex XCT densitometer (pQCT). Femur calcium content was measured in HCl-dissolved bone ash (obtained by heating for 24 hours in an oven at 100° C.), using a microcolorimetric assay. […] Statistical analysis was performed with the software program NCSS (NCSS, Kaysville, Utah, USA). ANOVA analyses followed bye Fisher's least significant (LSD)-multiple comparison tests were carried out to detect significant differences, p<0.05 was accepted as significant.

[4] = DEXA, OVX mice, 8 weeks, increase (↑)
[5] = DEXA, SHAM mice, 8 weeks, increase (↑)
[6] = calculated from pQCT femur, OVX mice, 8 weeks, increase (↑)
[7] = calculated from pQCT femur, SHAM mice, 8 weeks, increase (↑), * not significant
[8] = pQCT femur, OVX mice, 8 weeks, increase (↑)
[9] = pQCT femur, SHAM mice, 8 weeks, increase (↑)

C[C@H](CC#CC(O)(C(F)(F)F)C(F)(F)F)[C@@]1(C)CC[C@@H](/C=C/C=C2C[C@@H](O)C[C@H](O)C2)C1(C)C [MV2, (1R,3R)-5-((E)-3-((1S,3R)-3-((1R)-6,6,6-trifluoro-5-hydroxy-1-methyl-5-trifluoromethyl-3-hexynyl)-2,2,3-trimethylcyclopentyl)-2-propenylidene)cyclohexane-1,3-diol]
hypercalcemic effects (serum calcium) ([1]; 1 pg/kg three times per week (so in the source)): no hypercalcemic effects | body weight during treatment ([1]; 1 μg/kg p.o. three times per week): no animals lost weight | Serum calcium vs. control (%) (NMRI mice): 97% | femur calcium vs. control (%) (NMRI mice): 112* % | DBP (relative affinity) [2]: 7% | body weight during treatment ([3]; 8 weeks): no animals lost weight | serum calcium levels (no hypercalcemic effects) ([3]; end of 8 weeks): below 11.5 mg/dl | BMC total body, OVX + analogue vs. OVX + vehicle (= 100%) in % [3, 4]: 19% and 19 ↑ % | BMD spine, OVX + analogue vs. OVX + vehicle (= 100%) in % [3, 4]: 22% and 22 ↑ % | BMD total body, OVX + analogue vs. OVX + vehicle (= 100%) in % [3, 4]: 9% and 9 ↑ % | BMC total body, SHAM + analogue vs. SHAM + vehicle (= 100%) in % [3, 5]: 16% and 16 ↑ % | BMD spine, SHAM + analogue vs. SHAM + vehicle (= 100%) in % [3, 5]: 11% and 11 ↑ % | BMD total body, SHAM + analogue vs. SHAM + vehicle (= 100%) in % [3, 5]: 9% and 9 ↑ % | increase in calcium content in femur, OVX treated animals compared to control animals ([3]; OVX mice, 8 weeks): 14% | increase in calcium content in femur, SHAM treated animals compared to control animals ([3]; SHAM mice, 8 weeks): 12% | Moment of inertia, OVX analogue versus OVX vehicle (=100%) in % [3, 6]: 12 ↑ % | Moment of resistance, OVX analogue versus OVX vehicle (=100%) in % [3, 6]: 8 ↑ % | Moment of inertia, SHAM analogue versus SHAM vehicle (=100%) in % [3, 7]: 6 ↑* % | Moment of resistance, SHAM analogue versus SHAM vehicle (=100%) in % [3, 7]: 3 ↑* % | Endosteal circumference, OVX analogue versus OVX vehicle (=100%) in % ([3]; pQCT femur, OVX mice, 8 weeks, decrease (↓), * not significant): 2 ↓* % | Cortical BMC, OVX analogue versus OVX vehicle (=100%) in % [3, 8]: 11 ↑ % | Cortical BMD, OVX analogue versus OVX vehicle (=100%) in % [3, 8]: 2 ↑ % | Cortical area, OVX analogue versus OVX vehicle (=100%) in % [3, 8]: 9 ↑ % | Cortical thickness, OVX analogue versus OVX vehicle (=100%) in % [3, 8]: 8 ↑ % | Periosteal circumference, OVX analogue versus OVX vehicle (=100%) in % [3, 8]: 3% and 3 ↑ % | Trabecular BMC, OVX analogue versus OVX vehicle (=100%) in % [3, 8]: 69 ↑ % | Trabecular BMD, OVX analogue versus OVX vehicle (=100%) in % [3, 8]: 57 ↑ % | Trabecular area, OVX analogue versus OVX vehicle (=100%) in % [3, 8]: 8 ↑ % | Endosteal circumference, SHAM analogue versus SHAM vehicle (=100%) in % ([3]; pQCT femur, SHAM mice, 8 weeks, decrease (↓), * not significant): 4 ↓* % | Cortical BMC, SHAM analogue versus SHAM vehicle (=100%) in % [3, 9]: 7 ↑ % | Cortical BMD, SHAM analogue versus SHAM vehicle (=100%) in % [3, 9]: 1 ↑ % | Cortical area, SHAM analogue versus SHAM vehicle (=100%) in % [3, 9]: 6 ↑ % | Cortical thickness, SHAM analogue versus SHAM vehicle (=100%) in % [3, 9]: 6 ↑ % | Trabecular BMC, SHAM analogue versus SHAM vehicle (=100%) in % [3, 9]: 83 ↑ % | Trabecular BMD, SHAM analogue versus SHAM vehicle (=100%) in % [3, 9]: 74 ↑ % | Trabecular area, SHAM analogue versus SHAM vehicle (=100%) in % [3, 9]: 7 ↑ % | Periosteal circumference, SHAM analogue versus SHAM vehicle (=100%) in % ([3]; pQCT femur, SHAM mice, 8 weeks, increase (↑), * not significant): 1 ↑* %
